The source of these data is paper PMC2858875 (Chemistry & biology, 2010).

Data set [1] deals with T1, PI3Kδ (Homo sapiens, UniProt O00329).
T1 sequence (O00329 1-1044): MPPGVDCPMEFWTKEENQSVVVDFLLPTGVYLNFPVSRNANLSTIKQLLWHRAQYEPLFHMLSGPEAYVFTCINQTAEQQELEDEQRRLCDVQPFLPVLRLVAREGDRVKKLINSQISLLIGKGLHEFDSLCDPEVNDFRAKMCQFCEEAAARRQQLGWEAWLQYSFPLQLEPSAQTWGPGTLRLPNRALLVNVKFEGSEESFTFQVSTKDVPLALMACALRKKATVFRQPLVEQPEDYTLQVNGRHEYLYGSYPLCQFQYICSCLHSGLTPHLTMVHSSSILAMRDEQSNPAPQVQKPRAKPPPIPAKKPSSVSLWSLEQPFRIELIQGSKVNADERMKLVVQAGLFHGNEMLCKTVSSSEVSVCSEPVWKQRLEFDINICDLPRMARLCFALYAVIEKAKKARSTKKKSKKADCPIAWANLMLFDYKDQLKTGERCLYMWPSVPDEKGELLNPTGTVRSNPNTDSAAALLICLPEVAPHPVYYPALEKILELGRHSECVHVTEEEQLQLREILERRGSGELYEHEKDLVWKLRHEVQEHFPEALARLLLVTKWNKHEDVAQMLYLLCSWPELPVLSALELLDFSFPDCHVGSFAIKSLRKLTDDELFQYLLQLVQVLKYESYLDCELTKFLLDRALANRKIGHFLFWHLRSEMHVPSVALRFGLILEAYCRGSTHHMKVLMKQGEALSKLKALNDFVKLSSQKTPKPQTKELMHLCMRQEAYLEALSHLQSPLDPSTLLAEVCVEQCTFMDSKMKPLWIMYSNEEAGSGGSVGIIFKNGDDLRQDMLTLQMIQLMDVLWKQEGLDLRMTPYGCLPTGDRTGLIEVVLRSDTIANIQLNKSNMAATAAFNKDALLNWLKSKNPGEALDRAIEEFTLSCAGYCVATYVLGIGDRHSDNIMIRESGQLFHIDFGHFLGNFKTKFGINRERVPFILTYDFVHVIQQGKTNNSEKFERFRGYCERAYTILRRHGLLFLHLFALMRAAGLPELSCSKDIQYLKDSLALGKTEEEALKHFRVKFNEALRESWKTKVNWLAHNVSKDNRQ
Description: Class I PI3K kinase assay. To be noted: biochemical assay, 10μM ATP.

The test system of data set [2] is MCP-1 stimulated Ser473 p-Akt production in THP-1 monocytes. Description: THP-1 signaling assay, MCP-1 stimulated Ser473 p-Akt. In kind it is cell-based. To be noted: 100nM MCP-1 for 5 minutes, FACS.
Data set [3] relates to all PI3K isoforms. The settings on record: at 300nM; ref Camps et al., 2005; cited from earlier work.
Data set [4] has as its system M-CSF stimulated Ser473 p-Akt production in THP-1 monocytes. Briefly: THP-1 signaling assay, M-CSF stimulated Ser473 p-Akt. In kind it is cell-based. The settings on record: 50ng/mL CSF-1 for 7 minutes, FACS.
For data set [5], the system named is HUVECs.
In data set [6] the test system is PBMC/HUVEC co-culture. In kind it is cell-based, human.
The test system of data set [7] is PBMC/HUVEC co-culture.

For `O=C1NC(=O)/C(=C\c2ccc3nccnc3c2)S1` [AS605240], the “potency against PI3Kδ (in words)” value in data set [1] is given as “do not significantly inhibit PI3Kδ at the doses tested”. Moreover, the “block of MCP-1 stimulated Ser473 p-Akt production” value in data set [2] is on record as “blocked”. Also, the “inhibition of all PI3K isoforms” value in data set [3] is reported as “inhibits all PI3K isoforms”. The “block of M-CSF stimulated Ser473 p-Akt production” value in data set [4] is “ineffective”.

With `Cc1ccccc1-n1c(Cn2cnc3c(N)ncnc32)nc2cccc(C)c2c1=O` [IC87114], in data set [5] (3C system), the “E-selectin expression in directly stimulated HUVECs” value was “did not inhibit E-selectin expression”.

Turning to `COc1ccc2c(c1OC)N=C(NC(=O)c1cccnc1)N1CCN=C21` [PIK90], in data set [6], the CCL2/MCP-1 production entry is reported as “modest effects”, the CD38 production result is given as “modest effects” and the PBMC proliferation entry is “decrease”. In addition, the “HUVEC viability: sulforhodamine B (SRB) protein binding” value in data set [5] is listed as less than -0.3 log ratio. In addition, in data set [5] (3C system), the HLA-DR level result was “strongly inhibited” and the “urokinase receptor (CD87/uPAR) level” value was “strongly inhibited”. Besides, in data set [5] (HUVEC-only culture), the HUVEC proliferation entry is listed as “inhibited HUVEC proliferation”. In addition, the cell viability entry in data set [7] was “little effect”. Further, in data set [7] (LPS system), the CD40 level result was “significantly reduced”.
